Data as given in patent US8273754B2, “Substituted 1H-pyrazolo[3,4-D]pyrimidine-6-amine compounds” (ArQule, Inc., priority 2008, dated 2012).
Like-named read-outs stand apart in the source and are kept apart here.

Tested on: cancer cells
Assay: MTS cell growth inhibition assay (72 hours)
Format: cell-based
In short: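 Growth inhibition read as formazan absorbance at 492 nm after 4 h MTS/PMS, following 72 h compound exposure at 37 °C in 1% FBS DMEM (cells pre-seeded 18 h). IC50 = 50% absorbance reduction; inhibition graded in bands.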

[1] = Homo sapiens, DLD-1, 72 h, DLD-1 cells, read-out: DLD-1 MTS 72 hr at 10 μM
[2] = Homo sapiens, KATO III, 72 h, KATO III cells, read-out: KATO III MTS 72 hr at 10 μM
[3] = Homo sapiens, MDA-MB-231, 72 h, MDA-MB-231 cells, read-out: MDA-MB-231 MTS 72 hr at 10 μM
[4] = Homo sapiens, NCI-H1299, 72 h, NCI-H1299 cells, read-out: NCI-H1299 MTS 72 hr at 10 μM
[5] = PaCa-2, 72 h, PACA-2 cells, read-out: PACA-2 MTS 72 hr at 10 μM

Compound	inhibition at 10 µM [1]	inhibition at 10 µM [2]	inhibition at 10 µM [3]	inhibition at 10 µM [4]	inhibition at 10 µM [5]
Nc1nc(NC2CCN(S(=O)(=O)c3ccc(F)cc3)c3ccccc3C2)c2cn[nH]c2n1 (centres unmarked) [Compound 183, N4-{1-[(4-fluorophenyl)sulfonyl]-2,3,4,5-tetrahydro-1H-1-benzazepin-4-yl}-1H-pyrazolo[3,4-d]pyrimidine-4,6-diamine]	< 50%	< 50%	< 50%	< 50%	< 50%
COc1ccc(F)c(CN2CC(Nc3nc(N)nc4[nH]ncc34)Cc3ccccc32)c1 (centres unmarked) [Compound 142, N4-[1-(2-fluoro-5-methoxybenzyl)-1,2,3,4-tetrahydroquinolin-3-yl]-1H-pyrazolo[3,4-d]pyrimidine-4,6-diamine]	< 50%	50 to 79%	< 50%	< 50%	> 79%
CCc1ccc(S(=O)(=O)N2CC(Nc3nc(N)nc4[nH]ncc34)Cc3ccccc32)cc1 (centres unmarked) [Compound 59, N4-(1-(4-ethylphenylsulfonyl)-1,2,3,4-tetrahydroquinolin-3-yl)-1H-pyrazolo[3,4-d]pyrimidine-4,6-diamine]	< 50%	< 50%	< 50%	< 50%	< 50%
Nc1nc(NC2Cc3ccccc3N(S(=O)(=O)c3cccc(NC(=O)Nc4cccc(Cl)c4)c3)C2)c2cn[nH]c2n1 (centres unmarked) [Compound 201, 1-[3-({3-[(6-amino-1H-pyrazolo[3,4-d]pyrimidin-4-yl)amino]-3,4-dihydroquinolin-1(2H)-yl}sulfonyl)phenyl]-3-(3-chlorophenyl)urea]	> 79%	> 79%	> 79%	> 79%	> 79%
Cn1cnc(S(=O)(=O)N2CC(Nc3nc(N)nc4[nH]ncc34)Cc3ccccc32)c1 (centres unmarked) [Compound 38, N4-(1-(1-methyl-1H-imidazol-4-ylsulfonyl)-1,2,3,4-tetrahydroquinolin-3-yl)-1H-pyrazolo[3,4-d]pyrimidine-4,6-diamine]	< 50%	< 50%	< 50%	< 50%	< 50%
Nc1nc(NC2Cc3ccccc3N(C(=O)CCc3ccccc3)C2)c2cn[nH]c2n1 (centres unmarked) [Compound 102, 1-(3-(6-amino-1H-pyrazolo[3,4-d]pyrimidin-4-ylamino)-3,4-dihydroquinolin-1(2H)-yl)-3-phenylpropan-1-one]	< 50%	< 50%	< 50%	< 50%	< 50%
Cc1cc(C)c(S(=O)(=O)N2CCC(Nc3nc(N)nc4[nH]ncc34)Cc3ccccc32)c(C)c1 (centres unmarked) [Compound 173, N4-[1-(mesitylsulfonyl)-2,3,4,5-tetrahydro-1H-1-benzazepin-4-yl]-1H-pyrazolo[3,4-d]pyrimidine-4,6-diamine]	< 50%	< 50%	< 50%	< 50%	< 50%
Cc1ccc(Oc2ccc(S(=O)(=O)N3CC(Nc4nc(N)nc5[nH]ncc45)Cc4ccccc43)cc2)cc1 (centres unmarked) [Compound 69, N4-(1-(4-(p-tolyloxy)phenylsulfonyl)-1,2,3,4-tetrahydroquinolin-3-yl)-1H-pyrazolo[3,4-d]pyrimidine-4,6-diamine]	> 79%	> 79%	> 79%	> 79%	> 79%
Nc1nc(NC2Cc3ccccc3N(C(=O)c3c(F)cccc3Cl)C2)c2cn[nH]c2n1 (centres unmarked) [Compound 99, (3-(6-amino-1H-pyrazolo[3,4-d]pyrimidin-4-ylamino)-3,4-dihydroquinolin-1(2H)-yl)(2-chloro-6-fluorophenyl)methanone]	< 50%	< 50%	< 50%	< 50%	< 50%
Nc1nc(NC2Cc3ccccc3N(S(=O)(=O)c3ccc(-c4ccccc4)cc3)C2)c2cn[nH]c2n1 (centres unmarked) [Compound 16, N4-(1-(biphenyl-4-ylsulfonyl)-1,2,3,4-tetrahydroquinolin-3-yl)-1H-pyrazolo[3,4-d]pyrimidine-4,6-diamine]	50 to 79%	50 to 79%	< 50%	< 50%	50 to 79%
COc1cccc(CN2CC(Nc3nc(N)nc4[nH]ncc34)Cc3ccccc32)c1F (centres unmarked) [Compound 137, N4-[1-(2-fluoro-3-methoxybenzyl)-1,2,3,4-tetrahydroquinolin-3-yl]-1H-pyrazolo[3,4-d]pyrimidine-4,6-diamine]	> 79%	> 79%	> 79%	> 79%	> 79%
Nc1nc(NC2Cc3ccccc3N(C(=O)Cc3ccccc3)C2)c2cn[nH]c2n1 (centres unmarked) [Compound 87, 1-(3-(6-amino-1H-pyrazolo[3,4-d]pyrimidin-4-ylamino)-3,4-dihydroquinolin-1(2H)-yl)-2-phenylethanone]	< 50%	< 50%	< 50%	< 50%	< 50%
Nc1nc(NC2Cc3ccccc3N(S(=O)(=O)c3ccc(NC(=O)Nc4ccccc4F)cc3)C2)c2cn[nH]c2n1 (centres unmarked) [Compound 191, 1-[4-({3-[(6-amino-1H-pyrazolo[3,4-d]pyrimidin-4-yl)amino]-3,4-dihydroquinolin-1(2H)-yl}sulfonyl)phenyl]-3-(2-fluorophenyl)urea]	< 50%	< 50%	< 50%	< 50%	< 50%
Nc1nc(NC2Cc3ccccc3N(C(=O)NCCc3cccc(Cl)c3)C2)c2cn[nH]c2n1 (centres unmarked) [Compound 106, 3-(6-amino-1H-pyrazolo[3,4-d]pyrimidin-4-ylamino)-N-(3-chlorophenethyl)-3,4-dihydroquinoline-1(2H)-carboxamide]	< 50%	< 50%	< 50%	< 50%	< 50%
Nc1nc(NC2Cc3ccccc3N(S(=O)(=O)c3cccc(NC(=O)Nc4ccccc4)c3)C2)c2cn[nH]c2n1 (centres unmarked) [Compound 200, 1-[3-({3-[(6-amino-1H-pyrazolo[3,4-d]pyrimidin-4-yl)amino]-3,4-dihydroquinolin-1(2H)-yl}sulfonyl)phenyl]-3-phenylurea]	< 50%	< 50%	< 50%	< 50%	< 50%
Nc1nc(NC2CCN(S(=O)(=O)c3ccc(Cl)c(C(F)(F)F)c3)c3ccccc3C2)c2cn[nH]c2n1 (centres unmarked) [Compound 170, N4-(1-{[4-chloro-3-(trifluoromethyl)phenyl]sulfonyl}-2,3,4,5-tetrahydro-1H-1-benzazepin-4-yl)-1H-pyrazolo[3,4-d]pyrimidine-4,6-diamine]	< 50%	> 79%	> 79%	< 50%	50 to 79%
